{
  "source": "PubChem BioAssay AID602341",
  "about": "(The Scripps Research Institute Molecular Screening Center, 2012)",
  "experiment_in_all_cases": "cellular hydrolase off-targets, SILAC, ABHD6 analysis – ABPP-SILAC, LC-MS, mouse cells, selectivity assay for DAGLb inhibitor project, late-stage follow-up (AID 602341)",
  "key": {"Abhd11": {"test_system": "Abhd11", "conditions": "serine hydrolases, active compounds read low"}, "Abhd12": {"test_system": "Abhd12", "conditions": "serine hydrolases, active compounds read low"}, "Ache": {"test_system": "Ache", "conditions": "serine hydrolases, active compounds read low"}, "Acot2": {"test_system": "Acot2", "conditions": "serine hydrolases, active compounds read low"}, "[1]": {"molecular_target": "Acyl-protein thioesterase 1 (Mus musculus) (UniProt P97823)", "sequence (P97823 whole entry, looked up)": "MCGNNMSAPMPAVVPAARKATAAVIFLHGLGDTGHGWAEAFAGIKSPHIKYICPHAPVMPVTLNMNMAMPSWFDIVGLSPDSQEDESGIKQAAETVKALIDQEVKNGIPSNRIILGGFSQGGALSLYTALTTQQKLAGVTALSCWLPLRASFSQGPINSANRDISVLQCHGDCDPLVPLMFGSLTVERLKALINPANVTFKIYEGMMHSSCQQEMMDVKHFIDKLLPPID", "conditions": "serine hydrolases, Lypla1, active compounds read low"}, "Apeh": {"test_system": "Apeh", "conditions": "serine hydrolases, active compounds read low"}, "Bat5": {"test_system": "Bat5", "conditions": "serine hydrolases, active compounds read low"}, "Ctsa": {"test_system": "Ctsa", "conditions": "serine hydrolases, active compounds read low"}, "D230012E17Rik": {"test_system": "D230012E17Rik", "conditions": "serine hydrolases, active compounds read low"}, "[2]": {"molecular_target": "Diacylglycerol lipase-beta (Mus musculus) (UniProt Q91WC9)", "sequence (Q91WC9 whole entry, looked up)": "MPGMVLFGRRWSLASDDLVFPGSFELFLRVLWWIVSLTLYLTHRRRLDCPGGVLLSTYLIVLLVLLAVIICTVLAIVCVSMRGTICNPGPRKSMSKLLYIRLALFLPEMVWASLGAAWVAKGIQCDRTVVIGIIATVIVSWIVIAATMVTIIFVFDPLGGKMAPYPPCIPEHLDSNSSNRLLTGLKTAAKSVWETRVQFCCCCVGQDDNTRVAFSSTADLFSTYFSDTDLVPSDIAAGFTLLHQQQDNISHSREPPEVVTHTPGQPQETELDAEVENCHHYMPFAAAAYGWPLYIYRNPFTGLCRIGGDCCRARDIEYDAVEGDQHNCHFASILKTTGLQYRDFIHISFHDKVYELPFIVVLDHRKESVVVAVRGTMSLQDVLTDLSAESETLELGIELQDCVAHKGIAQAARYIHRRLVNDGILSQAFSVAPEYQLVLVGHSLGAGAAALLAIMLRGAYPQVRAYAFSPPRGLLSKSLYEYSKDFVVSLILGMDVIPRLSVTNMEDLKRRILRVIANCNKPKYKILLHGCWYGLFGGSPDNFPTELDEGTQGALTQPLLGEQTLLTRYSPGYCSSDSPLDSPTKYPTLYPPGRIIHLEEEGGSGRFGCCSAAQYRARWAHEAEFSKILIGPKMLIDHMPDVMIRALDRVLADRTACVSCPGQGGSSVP", "conditions": "serine hydrolases, Daglb, active compounds read low"}, "Dpp7": {"test_system": "Dpp7", "conditions": "serine hydrolases, active compounds read low"}, "Dpp8": {"test_system": "Dpp8", "conditions": "serine hydrolases, active compounds read low"}, "Dpp9": {"test_system": "Dpp9", "conditions": "serine hydrolases, active compounds read low"}, "Esd": {"test_system": "Esd", "conditions": "serine hydrolases, active compounds read low"}, "Faah": {"test_system": "Faah", "conditions": "serine hydrolases, active compounds read low"}, "Fam108a": {"test_system": "Fam108a", "conditions": "serine hydrolases, active compounds read low"}, "Fam108b": {"test_system": "Fam108b", "conditions": "serine hydrolases, active compounds read low"}, "Fam108c": {"test_system": "Fam108c", "conditions": "serine hydrolases, active compounds read low"}, "Fasn": {"test_system": "Fasn", "conditions": "serine hydrolases, active compounds read low"}, "Htra2": {"test_system": "Htra2", "conditions": "serine hydrolases, active compounds read low"}, "Iah1": {"test_system": "Iah1", "conditions": "serine hydrolases, active compounds read low"}, "Kiaa1363": {"test_system": "Kiaa1363", "conditions": "serine hydrolases, active compounds read low"}, "Lactb": {"test_system": "Lactb", "conditions": "serine hydrolases, active compounds read low"}, "Lipe": {"test_system": "Lipe", "conditions": "serine hydrolases, active compounds read low"}, "Lonp1": {"test_system": "Lonp1", "conditions": "serine hydrolases, active compounds read low"}, "Lypla2": {"test_system": "Lypla2", "conditions": "serine hydrolases, active compounds read low"}, "Lypla3": {"test_system": "Lypla3", "conditions": "serine hydrolases, active compounds read low"}, "Lyplal1": {"test_system": "Lyplal1", "conditions": "serine hydrolases, active compounds read low"}, "[3]": {"molecular_target": "Monoacylglycerol lipase ABHD6 (Mus musculus) (UniProt Q8R2Y0)", "sequence (Q8R2Y0 whole entry, looked up)": "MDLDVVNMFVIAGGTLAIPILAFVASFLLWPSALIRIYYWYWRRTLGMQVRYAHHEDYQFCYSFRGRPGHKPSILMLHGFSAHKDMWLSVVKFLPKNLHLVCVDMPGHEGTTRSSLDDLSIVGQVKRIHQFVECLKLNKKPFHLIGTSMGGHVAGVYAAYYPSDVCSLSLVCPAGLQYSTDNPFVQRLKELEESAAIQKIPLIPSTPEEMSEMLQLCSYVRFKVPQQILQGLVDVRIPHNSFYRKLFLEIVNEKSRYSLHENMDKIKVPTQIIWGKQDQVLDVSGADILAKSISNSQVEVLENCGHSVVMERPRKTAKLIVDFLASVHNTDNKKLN", "conditions": "serine hydrolases, active compounds read low"}, "Pafah1b2": {"test_system": "Pafah1b2", "conditions": "serine hydrolases, active compounds read low"}, "Pafah1b3": {"test_system": "Pafah1b3", "conditions": "serine hydrolases, active compounds read low"}, "[4]": {"molecular_target": "Palmitoyl-protein thioesterase ABHD10, mitochondrial (Mus musculus) (UniProt Q6PE15)", "sequence (Q6PE15 whole entry, looked up)": "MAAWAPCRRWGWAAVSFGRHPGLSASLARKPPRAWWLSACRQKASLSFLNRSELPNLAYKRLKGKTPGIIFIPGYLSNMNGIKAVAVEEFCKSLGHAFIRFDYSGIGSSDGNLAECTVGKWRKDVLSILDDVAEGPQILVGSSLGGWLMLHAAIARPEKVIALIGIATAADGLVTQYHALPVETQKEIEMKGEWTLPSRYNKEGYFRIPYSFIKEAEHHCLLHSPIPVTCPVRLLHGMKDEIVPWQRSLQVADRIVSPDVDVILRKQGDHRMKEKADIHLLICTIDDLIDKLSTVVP", "conditions": "serine hydrolases, active compounds read low"}, "Parl": {"test_system": "Parl", "conditions": "serine hydrolases, active compounds read low"}, "Pla2g6": {"test_system": "Pla2g6", "conditions": "serine hydrolases, active compounds read low"}, "[5]": {"molecular_target": "Platelet-activating factor acetylhydrolase 2, cytoplasmic (Mus musculus) (UniProt Q8VDG7)", "sequence (Q8VDG7 whole entry, looked up)": "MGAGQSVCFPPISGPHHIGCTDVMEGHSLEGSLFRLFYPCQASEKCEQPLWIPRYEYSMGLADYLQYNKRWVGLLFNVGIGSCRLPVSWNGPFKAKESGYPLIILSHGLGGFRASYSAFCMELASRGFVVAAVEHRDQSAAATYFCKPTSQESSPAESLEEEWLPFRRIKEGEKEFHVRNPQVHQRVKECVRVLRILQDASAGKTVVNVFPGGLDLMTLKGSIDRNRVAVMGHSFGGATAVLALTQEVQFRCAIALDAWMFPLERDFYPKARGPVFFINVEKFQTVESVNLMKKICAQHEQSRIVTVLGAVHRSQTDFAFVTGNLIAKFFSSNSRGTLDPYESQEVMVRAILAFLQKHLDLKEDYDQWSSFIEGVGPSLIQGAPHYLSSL", "conditions": "serine hydrolases, Pafah2, active compounds read low"}, "Pme1": {"test_system": "Pme1", "conditions": "serine hydrolases, active compounds read low"}, "Pnpla6": {"test_system": "Pnpla6", "conditions": "serine hydrolases, active compounds read low"}, "Pnpla7": {"test_system": "Pnpla7", "conditions": "serine hydrolases, active compounds read low"}, "Pnpla8": {"test_system": "Pnpla8", "conditions": "serine hydrolases, active compounds read low"}, "Ppt2": {"test_system": "Ppt2", "conditions": "serine hydrolases, active compounds read low"}, "Prcp": {"test_system": "Prcp", "conditions": "serine hydrolases, active compounds read low"}, "Prepl": {"test_system": "Prepl", "conditions": "serine hydrolases, active compounds read low"}, "[6]": {"molecular_target": "Prolyl endopeptidase (Mus musculus) (UniProt Q9QUR6)", "sequence (Q9QUR6 whole entry, looked up)": "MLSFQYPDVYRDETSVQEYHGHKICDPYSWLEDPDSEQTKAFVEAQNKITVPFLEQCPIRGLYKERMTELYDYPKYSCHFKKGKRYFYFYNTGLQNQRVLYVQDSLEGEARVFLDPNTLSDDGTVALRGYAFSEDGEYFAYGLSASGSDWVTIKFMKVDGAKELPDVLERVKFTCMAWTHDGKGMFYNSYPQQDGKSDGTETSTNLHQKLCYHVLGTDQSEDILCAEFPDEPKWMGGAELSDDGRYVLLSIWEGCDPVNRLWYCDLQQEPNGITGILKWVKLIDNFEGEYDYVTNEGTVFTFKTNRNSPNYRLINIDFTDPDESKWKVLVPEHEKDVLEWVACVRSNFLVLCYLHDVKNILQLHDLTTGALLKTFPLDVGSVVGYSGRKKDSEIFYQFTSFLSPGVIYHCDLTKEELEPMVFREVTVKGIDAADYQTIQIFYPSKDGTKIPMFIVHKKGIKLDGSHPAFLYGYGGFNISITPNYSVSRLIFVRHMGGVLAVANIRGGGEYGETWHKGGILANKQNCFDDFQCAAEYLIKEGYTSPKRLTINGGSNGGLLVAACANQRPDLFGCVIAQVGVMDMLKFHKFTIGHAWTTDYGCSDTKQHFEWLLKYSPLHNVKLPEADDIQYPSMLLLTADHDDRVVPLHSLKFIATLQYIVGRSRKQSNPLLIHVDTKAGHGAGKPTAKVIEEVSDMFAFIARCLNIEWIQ", "conditions": "serine hydrolases, Prep, active compounds read low"}, "Qrsl1": {"test_system": "Qrsl1", "conditions": "serine hydrolases, active compounds read low"}, "Rbbp9": {"test_system": "Rbbp9", "conditions": "serine hydrolases, active compounds read low"}, "Serhl": {"test_system": "Serhl", "conditions": "serine hydrolases, active compounds read low"}, "Tpp2": {"test_system": "Tpp2", "conditions": "serine hydrolases, active compounds read low"}},
  "note": "Calls of active or inactive are those of the source. The rule behind the calls is not given here.",
  "data": [
    {"smiles": "COc1ccc(-c2ccc(-c3cn(C(=O)N4CCCCC4c4ccccc4)nn3)cc2)cc1", "note": "(configuration not stated)", "values": [
      {"measurement": "SILAC ratio (inhibitor/DMSO)", "setting": "Abhd11", "result": "1.5 (inactive)"},
      {"measurement": "SILAC ratio (inhibitor/DMSO)", "setting": "Abhd12", "result": "1.3 (inactive)"},
      {"measurement": "SILAC ratio (inhibitor/DMSO)", "setting": "Ache", "result": "1.23 (inactive)"},
      {"measurement": "SILAC ratio (inhibitor/DMSO)", "setting": "Acot2", "result": "1.47 (inactive)"},
      {"measurement": "SILAC ratio (inhibitor/DMSO)", "setting": "[1]", "result": "1.05 (inactive)"},
      {"measurement": "SILAC ratio (inhibitor/DMSO)", "setting": "Apeh", "result": "1.13 (inactive)"},
      {"measurement": "SILAC ratio (inhibitor/DMSO)", "setting": "Bat5", "result": "1.27 (inactive)"},
      {"measurement": "SILAC ratio (inhibitor/DMSO)", "setting": "Ctsa", "result": "1.46 (inactive)"},
      {"measurement": "SILAC ratio (inhibitor/DMSO)", "setting": "D230012E17Rik", "result": "1.13 (inactive)"},
      {"measurement": "SILAC ratio (inhibitor/DMSO)", "setting": "[2]", "result": "1.05 (inactive)"},
      {"measurement": "SILAC ratio (inhibitor/DMSO)", "setting": "Dpp7", "result": "1.29 (inactive)"},
      {"measurement": "SILAC ratio (inhibitor/DMSO)", "setting": "Dpp8", "result": "1.17 (inactive)"},
      {"measurement": "SILAC ratio (inhibitor/DMSO)", "setting": "Dpp9", "result": "1.06 (inactive)"},
      {"measurement": "SILAC ratio (inhibitor/DMSO)", "setting": "Esd", "result": "1.34 (inactive)"},
      {"measurement": "SILAC ratio (inhibitor/DMSO)", "setting": "Faah", "result": "0.95 (inactive)"},
      {"measurement": "SILAC ratio (inhibitor/DMSO)", "setting": "Fam108a", "result": "1.33 (inactive)"},
      {"measurement": "SILAC ratio (inhibitor/DMSO)", "setting": "Fam108b", "result": "1.15 (inactive)"},
      {"measurement": "SILAC ratio (inhibitor/DMSO)", "setting": "Fam108c", "result": "1.13 (inactive)"},
      {"measurement": "SILAC ratio (inhibitor/DMSO)", "setting": "Fasn", "result": "1.19 (inactive)"},
      {"measurement": "SILAC ratio (inhibitor/DMSO)", "setting": "Htra2", "result": "1.29 (inactive)"},
      {"measurement": "SILAC ratio (inhibitor/DMSO)", "setting": "Iah1", "result": "1.15 (inactive)"},
      {"measurement": "SILAC ratio (inhibitor/DMSO)", "setting": "Kiaa1363", "result": "1.39 (inactive)"},
      {"measurement": "SILAC ratio (inhibitor/DMSO)", "setting": "Lactb", "result": "1.05 (inactive)"},
      {"measurement": "SILAC ratio (inhibitor/DMSO)", "setting": "Lipe", "result": "1.21 (inactive)"},
      {"measurement": "SILAC ratio (inhibitor/DMSO)", "setting": "Lonp1", "result": "1.73 (inactive)"},
      {"measurement": "SILAC ratio (inhibitor/DMSO)", "setting": "Lypla2", "result": "1.13 (inactive)"},
      {"measurement": "SILAC ratio (inhibitor/DMSO)", "setting": "Lypla3", "result": "1.1 (inactive)"},
      {"measurement": "SILAC ratio (inhibitor/DMSO)", "setting": "Lyplal1", "result": "1.61 (inactive)"},
      {"measurement": "SILAC ratio (inhibitor/DMSO)", "setting": "[3]", "result": 0.05},
      {"measurement": "SILAC ratio (inhibitor/DMSO)", "setting": "Pafah1b2", "result": "1.19 (inactive)"},
      {"measurement": "SILAC ratio (inhibitor/DMSO)", "setting": "Pafah1b3", "result": "1.15 (inactive)"},
      {"measurement": "SILAC ratio (inhibitor/DMSO)", "setting": "[4]", "result": "1.17 (inactive)"},
      {"measurement": "SILAC ratio (inhibitor/DMSO)", "setting": "Parl", "result": "1.4 (inactive)"},
      {"measurement": "SILAC ratio (inhibitor/DMSO)", "setting": "Pla2g6", "result": "1.47 (inactive)"},
      {"measurement": "SILAC ratio (inhibitor/DMSO)", "setting": "[5]", "result": "1.1 (inactive)"},
      {"measurement": "SILAC ratio (inhibitor/DMSO)", "setting": "Pme1", "result": "1.29 (inactive)"},
      {"measurement": "SILAC ratio (inhibitor/DMSO)", "setting": "Pnpla6", "result": "1.4 (inactive)"},
      {"measurement": "SILAC ratio (inhibitor/DMSO)", "setting": "Pnpla7", "result": "1.65 (inactive)"},
      {"measurement": "SILAC ratio (inhibitor/DMSO)", "setting": "Pnpla8", "result": "1.33 (inactive)"},
      {"measurement": "SILAC ratio (inhibitor/DMSO)", "setting": "Ppt2", "result": "1.17 (inactive)"},
      {"measurement": "SILAC ratio (inhibitor/DMSO)", "setting": "Prcp", "result": "0.86 (inactive)"},
      {"measurement": "SILAC ratio (inhibitor/DMSO)", "setting": "Prepl", "result": "1 (inactive)"},
      {"measurement": "SILAC ratio (inhibitor/DMSO)", "setting": "[6]", "result": "1.07 (inactive)"},
      {"measurement": "SILAC ratio (inhibitor/DMSO)", "setting": "Qrsl1", "result": "1.47 (inactive)"},
      {"measurement": "SILAC ratio (inhibitor/DMSO)", "setting": "Rbbp9", "result": "1.4 (inactive)"},
      {"measurement": "SILAC ratio (inhibitor/DMSO)", "setting": "Serhl", "result": "1.2 (inactive)"},
      {"measurement": "SILAC ratio (inhibitor/DMSO)", "setting": "Tpp2", "result": "1.43 (inactive)"}
    ]}
  ]
}
